Article PMC6901909, “Synergy Pattern of Short Cationic Antimicrobial Peptides Against Multidrug-Resistant Pseudomonas aeruginosa” (Frontiers in Microbiology, 2019)
In brackets after ≈: the same amount, converted by molar mass. Where two headings read alike, the source gives them in different places.

Legend:
Experiment in all cases: microbe, parasite or virus in culture
Assay type in all cases: cell-based, Pseudomonas aeruginosa
MDR P. aeruginosa PA 923 = details: Pseudomonas aeruginosa; conventional antibiotics; microdilution, Mueller-Hinton broth, 2–5 10^5 CFU/ml, 18 h at 37°C, read visually; at least three repeats (n = 3)
Summary of the method: (§1)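 Clinical and municipal waste-water MDR isolates were tested by broth microdilution in Mueller-Hinton broth with twofold serial dilutions at 2–5 10^5 CFU/ml. Plates were incubated 18 h at 37°C in polypropylene plates. MIC was read visually.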

MDR P. aeruginosa PA 915 = details: Pseudomonas aeruginosa; conventional antibiotics; microdilution, Mueller-Hinton broth, 2–5 10^5 CFU/ml, 18 h at 37°C, read visually; at least three repeats (n = 3)
Summary of the method: as §1

MDR P. aeruginosa PA253 = details: Pseudomonas aeruginosa; conventional antibiotics; microdilution, Mueller-Hinton broth, 2–5 10^5 CFU/ml, 18 h at 37°C, read visually; at least three repeats (n = 3)
Summary of the method: as §1

P. aeruginosa PA01-wt = details: Pseudomonas aeruginosa, PA01WT; conventional antibiotics; microdilution, Mueller-Hinton broth, 2–5 10^5 CFU/ml, 18 h at 37°C, read visually; at least three repeats (n = 3)
MDR P. aeruginosa PA 927 = details: Pseudomonas aeruginosa; conventional antibiotics; microdilution, Mueller-Hinton broth, 2–5 10^5 CFU/ml, 18 h at 37°C, read visually; at least three repeats (n = 3)
Summary of the method: as §1

MDR P. aeruginosa PA 919 = details: Pseudomonas aeruginosa; conventional antibiotics; microdilution, Mueller-Hinton broth, 2–5 10^5 CFU/ml, 18 h at 37°C, read visually; at least three repeats (n = 3)
Summary of the method: as §1

MDR P. aeruginosa PA 910 = details: Pseudomonas aeruginosa
Summary of the method: as §1

[1] = 18 h, antibiotic alone, as listed in the FIC table, read-out: MIC against PA910 in μM (antibiotics, head of Table 4)
[2] = conventional antibiotics, microdilution, Mueller-Hinton broth, 2–5 10^5 CFU/ml, 18 h at 37°C, read visually, at least three repeats (n = 3), read-out: MIC PA 910

**Q.** How did the MIC (MDR P. aeruginosa PA 923) turn out when `NCC[C@H](O)C(=O)N[C@@H]1C[C@H](N)[C@@H](O[C@H]2O[C@H](CN)[C@@H](O)[C@H](O)[C@H]2O)[C@H](O)[C@H]1O[C@H]1O[C@H](CO)[C@@H](O)[C@H](N)[C@H]1O` [Amikacin] was run?
**A.** 4 µM (≈ 2.34 µg/mL)

**Q.** And the MIC (MDR P. aeruginosa PA 915)?
**A.** 4 µM (≈ 2.34 µg/mL)

**Q.** What about the MIC (MDR P. aeruginosa PA253) of the same compound?
**A.** 8 to 16 µM (≈ 4.68 to 9.37 µg/mL)

**Q.** And the MIC (P. aeruginosa PA01-wt)?
**A.** 1 µM (≈ 0.586 µg/mL)

**Q.** What about the MIC (MDR P. aeruginosa PA 927) of the same compound?
**A.** 4 µM (≈ 2.34 µg/mL)

**Q.** What about the MIC (MDR P. aeruginosa PA 919) of the same compound?
**A.** 32 µM (≈ 18.7 µg/mL)

**Q.** What about the MIC (MDR P. aeruginosa PA 910; [1]) of the same compound?
**A.** 2 to 4 µM

**Q.** What about the MIC (MDR P. aeruginosa PA 910; [2]) of the same compound?
**A.** 2 to 4 µM (≈ 1.17 to 2.34 µg/mL)

**Q.** How did the MIC (MDR P. aeruginosa PA 923) turn out when `CO/N=C(\C(=O)N[C@@H]1C(=O)N2C(C(=O)[O-])=C(C[N+]3(C)CCCC3)CS[C@H]12)c1csc(N)n1` [Cefepime] was run?
**A.** 64 µM (≈ 30.8 µg/mL)

**Q.** What about the MIC (MDR P. aeruginosa PA 915) of the same compound?
**A.** 32 µM (≈ 15.4 µg/mL)

**Q.** What about the MIC (MDR P. aeruginosa PA253) of the same compound?
**A.** > 128 µM

**Q.** What about the MIC (P. aeruginosa PA01-wt) of the same compound?
**A.** 8 µM (≈ 3.84 µg/mL)

**Q.** What about the MIC (MDR P. aeruginosa PA 927) of the same compound?
**A.** 128 µM (≈ 61.5 µg/mL)

**Q.** And the MIC (MDR P. aeruginosa PA 919)?
**A.** 16 µM (≈ 7.69 µg/mL)

**Q.** And the MIC (MDR P. aeruginosa PA 910; [1])?
**A.** 128 µM

**Q.** What about the MIC (MDR P. aeruginosa PA 910; [2]) of the same compound?
**A.** 64 µM (≈ 30.8 µg/mL)

**Q.** `CC(C)(O/N=C(\C(=O)N[C@@H]1C(=O)N2C(C(=O)[O-])=C(C[n+]3ccccc3)CS[C@H]12)c1csc(N)n1)C(=O)O` [Ceftazidime] was tested. Which MIC (MDR P. aeruginosa PA 923) did it give?
**A.** 128 µM (≈ 70 µg/mL)

**Q.** And the MIC (MDR P. aeruginosa PA 915)?
**A.** 4 µM (≈ 2.19 µg/mL)

**Q.** And the MIC (MDR P. aeruginosa PA253)?
**A.** > 128 µM

**Q.** What about the MIC (P. aeruginosa PA01-wt) of the same compound?
**A.** 4 µM (≈ 2.19 µg/mL)

**Q.** And the MIC (MDR P. aeruginosa PA 927)?
**A.** > 128 µM

**Q.** What about the MIC (MDR P. aeruginosa PA 919) of the same compound?
**A.** 8 µM (≈ 4.37 µg/mL)

**Q.** And the MIC (MDR P. aeruginosa PA 910; [1])?
**A.** 64 µM

**Q.** What about the MIC (MDR P. aeruginosa PA 910; [2]) of the same compound?
**A.** 128 µM (≈ 70 µg/mL)

**Q.** What does the source list for `CC[C@H]1OC(=O)[C@H](C)[C@@H](O[C@H]2C[C@@](C)(OC)[C@@H](O)[C@H](C)O2)[C@H](C)[C@@H](O[C@@H]2O[C@H](C)C[C@H](N(C)C)[C@H]2O)[C@](C)(O)C[C@@H](C)C(=O)[C@H](C)[C@@H](O)[C@]1(C)O` [Erythromycin]?
**A.** MIC (MDR P. aeruginosa PA 923): 256 µM (≈ 188 µg/mL); MIC (MDR P. aeruginosa PA 915): 64 µM (≈ 47 µg/mL); MIC (MDR P. aeruginosa PA253): 64 µM (≈ 47 µg/mL); MIC (P. aeruginosa PA01-wt): 128 µM (≈ 93.9 µg/mL); MIC (MDR P. aeruginosa PA 927): 16 µM (≈ 11.7 µg/mL); MIC (MDR P. aeruginosa PA 919): 128 µM (≈ 93.9 µg/mL); MIC (MDR P. aeruginosa PA 910; [1]): 128 µM; MIC (MDR P. aeruginosa PA 910; [2]): 128 µM (≈ 93.9 µg/mL)

**Q.** Which MIC (MDR P. aeruginosa PA 923) does the source give for `CNC(C)C1CCC(N)C(OC2C(N)CC(N)C(OC3OCC(C)(O)C(NC)C3O)C2O)O1` (stereo not shown) [Gentamycin] here?
**A.** 128 µM (≈ 61.1 µg/mL)

**Q.** And the MIC (MDR P. aeruginosa PA 915)?
**A.** 128 to 256 µM (≈ 61.1 to 122 µg/mL)

**Q.** What about the MIC (MDR P. aeruginosa PA253) of the same compound?
**A.** > 256 µM

**Q.** What about the MIC (P. aeruginosa PA01-wt) of the same compound?
**A.** 1 µM (≈ 0.478 µg/mL)

**Q.** And the MIC (MDR P. aeruginosa PA 927)?
**A.** 128 µM (≈ 61.1 µg/mL)

**Q.** What about the MIC (MDR P. aeruginosa PA 919) of the same compound?
**A.** 128 µM (≈ 61.1 µg/mL)

**Q.** What about the MIC (MDR P. aeruginosa PA 910; [1]) of the same compound?
**A.** 128 µM

**Q.** And the MIC (MDR P. aeruginosa PA 910; [2])?
**A.** 128 µM (≈ 61.1 µg/mL)
